Test results: US5578324A, “Peptide proteinaceous drug nasal powder composition” (Teijin Limited, priority 1993, dated 1996)
Structures can show the parent of a compound that is named as a salt. Where a SMILES comes first, the peptide text is derived from it. [ ]: non-standard residue; d: D form. The star is where a group is joined. Sta = CC(C)C[C@H](N)[C@@H](O)CC(=O)O; Isovaleryl = CC(C)CC(=O)*

Columns and labels:
[1] = tested on: Human Nasal Mucosal Homogenate; experiment: Inhibitory effect on degradation of peptide proteinaceous drug in human nasal mucosal homogenate; assay type: biochemical; set-up: concentration or dose not given beside the values; conditions: 37° C., HPLC; for Inhibitor (%) ACTH: degradation of adrenocorticotropic hormone (ACTH); for Inhibitor (%) CGRP: degradation of calcitonin gene related peptide (CGRP); for Inhibitor (%) GLU: degradation of glucagon (GLU); for Inhibitor (%) GHRH: degradation of growth hormone releasing hormone (GHRH); for Inhibitor (%) INS: degradation of insulin (INS); for Inhibitor (%) LHRH: degradation of luteinizing hormone releasing hormone (LHRH); for Inhibitor (%) PTH: degradation of parathyroid hormone (PTH); for Inhibitor (%) PDGF: degradation of platelet-derived growth factor (PDGF); for Inhibitor (%) SCT: degradation of salmon calcitonin (SCT); for Inhibitor (%) GIF: degradation of somatostatin (GIF); for Inhibitor (%) S.p: degradation of substance P (S.p)
Experimental: A homogenate solution was prepared from human nasal mucosa to give 1 mg/ml of protein. […] The amounts of the peptide proteinaceous drug not yet cleaved after a predetermined time were measured by HPLC to find the amounts of decomposition. The inhibition rates were calculated by the following formula.
Inhibition rate (%)=(A-B)/A×100
A: Amount of peptide proteinaceous drug cleaved when enzyme inhibitor or absorption accelerant of present invention is not added to homogenate
B: Amount of peptide proteinaceous drug cleaved when enzyme inhibitor or absorption accelerant of present invention is added to homogenate

trypsin = target: T1, trypsin (Bos taurus, UniProt P00760); experiment: Trypsin inhibiting activity; assay type: biochemical
T1 construct: gene PRSS1
T1 sequence (P00760 24-246): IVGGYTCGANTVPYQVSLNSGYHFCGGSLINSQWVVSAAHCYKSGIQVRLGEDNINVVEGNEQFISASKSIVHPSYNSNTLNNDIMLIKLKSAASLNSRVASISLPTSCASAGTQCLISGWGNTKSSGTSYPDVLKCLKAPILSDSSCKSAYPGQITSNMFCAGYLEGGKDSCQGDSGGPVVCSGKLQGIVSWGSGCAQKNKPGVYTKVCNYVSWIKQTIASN

[2] = tested on: Human Nasal Mucosal Homogenate; experiment: Activity of protease in human nasal mucosal homogenate (cleavage of synthesized substrates); assay type: biochemical; conditions: substrate 0.1 mM, 37° C., amount of substrate cleaved by HPLC
Experimental: A homogenate solution was prepared from human nasal mucosa to give 1 mg/ml of protein. Next, synthesis substrates corresponding to the various proteases shown in Table 1 were added to 0.5 ml portions of the homogenate solution to give 0.1 mM concentrations. The results were incubated at 37° C. The amounts of the substrates remaining after a predetermined time were measured by HPLC to find the amounts of substrates cleaved and find the activity of the various proteases.

[3] = Promotion of nasal absorption of peptide proteinaceous drug; conditions: in vivo

trypsin inhibiting activity (trypsin)	Compound	Inhibitor (%) ACTH [1] [%]	Inhibitor (%) CGRP [1] [%]	Inhibitor (%) GLU [1] [%]	Inhibitor (%) GHRH [1] [%]	Inhibitor (%) INS [1] [%]	Inhibitor (%) LHRH [1] [%]	Inhibitor (%) PTH [1] [%]	Inhibitor (%) PDGF [1] [%]	Inhibitor (%) SCT [1] [%]	Inhibitor (%) GIF [1] [%]	Inhibitor (%) S.p [1] [%]	Activity (nM/h/mg protein) [2] [nM/h/mg protein]	effect of promoting nasal absorption [3]
no trypsin inhibiting activity	NC[C@H]1CC[C@H](C(=O)O)CC1 [Tranexamic acid, trans-4-(aminomethyl) cyclohexane carboxylic acid]	80	75	68	75	79	58	78	68	73	80	65	–	–
–	O=C(O)CNC(=O)C(CS)Cc1ccccc1 (stereo not shown) [Thiorphan]	0	0	0	0	0	0	0	0	0	–	0	–	–
–	Cc1ccc(S(=O)(=O)N[C@@H](Cc2ccccc2)C(=O)CCl)cc1 [TPCK]	8	0	5	0	7	5	10	3	0	11	10	–	–
–	Bz--Arg--MCA	–	–	–	–	–	–	–	–	–	–	–	1	–
–	NCc1ccccc1 [Benzylamine]	80	76	48	68	68	49	80	52	70	78	54	–	–
no trypsin inhibiting activity	NC[C@H]1CC[C@H](C(=O)Oc2ccc(CCC(=O)O)cc2)CC1 [Cetraxate hydrochloride, trans-(4-aminomethyl) cyclohexane carboxylic acid p-(2-carboxyethyl)phenyl ester]	70	70	54	70	80	48	75	58	–	80	54	–	–
–	CCOC(=O)c1ccc(OC(=O)CCCCCNC(=N)N)cc1 [Gabexate]	48	49	56	40	46	27	44	43	53	56	40	–	–
–	CC(C)CC(=O)N[C@H](C(=O)N[C@H](C(=O)N[C@@H](CC(C)C)[C@@H](O)CC(=O)N[C@@H](C)C(=O)N[C@@H](CC(C)C)[C@@H](O)CC(=O)O)C(C)C)C(C)C [Pepstatin] (Isovaleryl-VV[Sta]A[Sta]-OH)	4	10	8	0	15	0	10	0	10	0	0	–	–
no trypsin inhibiting activity	NC[C@H]1CC[C@H](C(=O)c2ccc(CCC(=O)O)cc2)CC1 [Rotraxate hydrochloride, 3-((p-(trans-4-aminomethylcyclohexylcarbonyl)phenyl)) propionic acid]	74	75	62	75	84	56	76	59	80	86	53	–	–
–	NCc1ccc(C(=O)O)cc1 [p-Aminomethyl benzoic acid]	84	72	60	70	74	54	80	65	76	85	58	–	–
–	CC(C)C[C@H](NC(=O)[C@@H](NC(=O)N[C@@H](Cc1ccccc1)C(=O)O)[C@@H]1CCN=C(N)N1)C(=O)N[C@H](C=O)Cc1ccccc1 [Chymostatin]	12	23	35	25	22	16	15	10	38	25	15	–	–
–	NCCCCCC(=O)O [ε-ACA, ε-Amino caproic acid]	0	0	0	0	0	0	0	0	0	0	0	–	no effect of promoting nasal absorption was observed

Compound	trypsin inhibiting activity (trypsin)	Inhibitor (%) ACTH [1] [%]	Inhibitor (%) CGRP [1] [%]	Inhibitor (%) GLU [1] [%]	Inhibitor (%) GHRH [1] [%]	Inhibitor (%) INS [1] [%]	Inhibitor (%) LHRH [1] [%]	Inhibitor (%) PTH [1] [%]	Inhibitor (%) PDGF [1] [%]	Inhibitor (%) SCT [1] [%]	Inhibitor (%) GIF [1] [%]	Inhibitor (%) S.p [1] [%]	Activity (nM/h/mg protein) [2] [nM/h/mg protein]	effect of promoting nasal absorption [3]
NCCc1ccc(O)c(O)c1 [Dopamine hydrochloride, 4-(2-aminoethyl)-1,2 benzenediol]	no trypsin inhibiting activity	77	72	50	50	52	29	70	55	64	72	60	–	–
NCc1ccc(S(N)(=O)=O)cc1 [Mafenide acetate, 4-(aminomethyl) benzenesulfamine]	no trypsin inhibiting activity	78	70	56	66	52	32	75	59	67	74	55	–	–
